Results as given in patent US7102009B2, “Substituted amine derivatives and methods of use” (Amgen Inc., priority 2001, dated 2006).

system: Human Umbilical Vein Endothelial cells (VEGF-stimulated HUVEC proliferation); test: HUVEC Proliferation Assay (VEGF-stimulated); type: cell-based; conditions: VEGF 50 ng/mL, 72 h incubation, CyQuant readout, read-out: inhibited VEGF-stimulated HUVEC proliferation at a level below (IC50)
In short: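 Pooled-donor HUVECs (passage 2–3) seeded in DMEM+10% FBS for 22 h, then pre-treated 2–3 h with five-point, five-fold compound dilutions (0.25% DMSO final). Stimulated with 50 ng/mL VEGF (bFGF 20 ng/mL on separate plates) for 72 h at 37 °C. CyQuant fluorescence (485/530 nm) after freeze-thaw; IC50 from 4-parameter fit.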

| Compound | IC50 |
| --- | --- |
| O=C(Nc1cc(CN2CCNCC2)cc(C(F)(F)F)c1)c1cccnc1Nc1ccc2cn[nH]c2c1 [Example 125, 2-(1H-Indazol-6-ylamino)-N-(3-piperazin-1-ylmethyl-5-trifluoromethyl-phenyl)-nicotinamide] | < 50 nM |
| CC1(C)CNCc2cc(NC(=O)c3cccnc3Nc3ccc4cn[nH]c4c3)ccc21 [Example 126, N-(4,4-Dimethyl-1,2,3,4-tetrahydro-isoquinolin-7-yl)-2-(1H-indazol-6-ylamino)-nicotinamide] | < 50 nM |
| CC1(C)CC(=O)Nc2cc(NC(=O)c3cccnc3Nc3ccc4cn[nH]c4c3)ccc21 [Example 575, N-(4,4-Dimethyl-2-oxo-1,2,3,4-tetrahydro-quinolin-7-yl)-2-(1H-indazol-6-ylamino)-nicotinamide] | < 50 nM |
| CN1CCC[C@@H]1COc1cc(NC(=O)c2cccnc2Nc2ccc3cn[nH]c3c2)cc(C(F)(F)F)c1 [Example 577, 2-(1H-Indazol-6-ylamino)-N-(3-((((2R)-1-methyl-2-pyrrolidinyl)methyl)oxy)-5-(trifluoromethyl)phenyl)-3-pyridinecarboxamide] | < 50 nM |
| CC(=O)N1CCC[C@@H]1COc1cc(NC(=O)c2cccnc2Nc2ccc3cn[nH]c3c2)cc(C(F)(F)F)c1 [Example 580, N-(3-((((2R)-1-Acetyl-2-pyrrolidinyl)methyl)oxy)-5-(trifluoromethyl)phenyl)-2-(1H-indazol-6-ylamino)-3-pyridinecarboxamide] | < 50 nM |
| O=C(Nc1cc(NC(=O)c2cccnc2Nc2ccc3cn[nH]c3c2)cc(C(F)(F)F)c1)O[C@H]1CCOC1 [Example 581, (3S)-Tetrahydro-3-furanyl 3-(((2-(1H-indazol-6-ylamino)-3-pyridinyl)carbonyl)amino)-5-(trifluoromethyl)phenylcarbamate] | < 50 nM |
| CC(C)N1CCC[C@H]1COc1cc(NC(=O)c2cccnc2Nc2ccc3cn[nH]c3c2)cc(C(F)(F)F)c1 [Example 583, 2-(1H-Indazol-6-ylamino)-N-(3-((((2S)-1-(1-methylethyl)-2-pyrrolidinyl)methyl)oxy)-5-(trifluoromethyl)phenyl)-3-pyridinecarboxamide] | < 50 nM |
| CS(=O)(=O)Nc1cc(NC(=O)c2cccnc2Nc2ccc3cn[nH]c3c2)cc(C(F)(F)F)c1 [Example 586, 2-(1H-Indazol-6-ylamino)-N-(3-((methylsulfonyl)amino)-5-(trifluoromethyl)phenyl)-3-pyridinecarboxamide] | < 50 nM |
| CC(C)(C)c1ccc(NC(=O)c2cccnc2Nc2ccc3cn[nH]c3c2)cc1NC(=O)CN1CCCC1 [Example 587, N-(4-(1,1-Dimethylethyl)-3-((1-pyrrolidinylacetyl)amino)phenyl)-2-(1H-indazol-6-ylamino)-3-pyridinecarboxamide] | < 50 nM |
| CC(C)(C)c1ccc(NC(=O)c2cccnc2Nc2ccc3cn[nH]c3c2)cc1NC(=O)CN1CCOCC1 [Example 588, N-(4-(1,1-Dimethyl)-3-((4-morpholinylacetyl)amino)phenyl)-2-(1H-indazol-6-ylamino)-3-pyridinecarboxamide] | < 50 nM |
| CC1(C)CC(=O)Nc2nc(NC(=O)c3cccnc3Nc3ccc4cn[nH]c4c3)ccc21 [Example 593, N-(5,5-Dimethyl-7-oxo-5,6,7,8-tetrahydro-[1,8]naphthyridin-2-yl)-2-(1H-indazol-6-ylamino)-nicotinamide] | < 50 nM |
| CC1(C)CNCc2cc(NC(=O)c3cccnc3Nc3ccc4[nH]c(=O)[nH]c4c3)ccc21 [Example 594, N-(4,4-Dimethyl-1,2,3,4-tetrahydro-isoquinolin-7-yl)-2-(2-oxo-2,3-dihydro-1H-benzoimidazol-5-ylamino)-nicotinamide] | < 50 nM |
| CC(C)(C)c1ccc(NC(=O)c2cccnc2Nc2cccc3c2CNC3=O)cc1 [Example 600, N-(4-tert-Butyl-phenyl)-2-(1-oxo-2,3-dihydro-1H-isoindol-4-ylamino)-nicotinamide] | < 50 nM |
| O=C(Nc1ccc(C(F)(F)C(F)(F)F)cc1)c1cccnc1Nc1cccc2c1CNC2=O [Example 602, 2-(1-Oxo-2,3-dihydro-1H-isoindol-4-ylamino)-N-(4-pentafluoroethyl-phenyl)-nicotinamide] | < 50 nM |
| CN1CCC(C(C)(C)c2ccc(NC(=O)c3cccnc3Nc3cccc4c3CNC4=O)cc2)CC1 [Example 603, N-{4-[1-Methyl-1-(1-methyl-piperidin-4-yl)-ethyl]-phenyl}-2-(1-oxo-2,3-dihydro-1H-isoindol-4-ylamino)-nicotinamide] | < 50 nM |
| O=C(Nc1ccc(C(OC[C@@H]2CCCN2)(C(F)(F)F)C(F)(F)F)cc1)c1cccnc1Nc1ccc2cn[nH]c2c1 [Example 607, 2-(1H-Indazol-6-ylamino)-N-{4-[2,2,2-trifluoro-1-(pyrrolidin-2-ylmethoxy)-1-trifluoromethyl-ethyl]-phenyl}-nicotinamide] | < 50 nM |
| O=C(Nc1ccc(C(O)(C(F)(F)F)C(F)(F)F)cc1)c1cccnc1Nc1cccc2c1CNC2=O [Example 608, 2-(1-Oxo-2,3-dihydro-1H-isoindol-4-ylamino)-N-[4-(2,2,2-trifluoro-1-hydroxy-1-trifluoromethyl-ethyl)-phenyl]-nicotinamide] | < 50 nM |
| O=C(Nc1cccc(C(O)(C(F)(F)F)C(F)(F)F)c1)c1cccnc1Nc1cccc2c1CNC2=O [Example 609, 2-(1-Oxo-2,3-dihydro-1H-isoindol-4-ylamino)-N-[3-(2,2,2-trifluoro-1-hydroxy-1-trifluoromethyl-ethyl)-phenyl]-nicotinamide] | < 50 nM |
| CN(C)CC(=O)Nc1cc(NC(=O)c2cccnc2Nc2ccc3cn[nH]c3c2)ccc1C(C)(C)C [Example 613, N-(4-(1,1-Dimethylethyl)-3-((N,N-dimethylglycyl)amino)phenyl)-2-(1H-indazol-6-ylamino)-3-pyridinecarboxamide] | < 50 nM |
| CN1CCC[C@H]1COc1cc(NC(=O)c2cccnc2Nc2ccc3cn[nH]c3c2)ccc1C(F)(F)F [Example 616, 2-(1H-indazol-6-ylamino)-N-(3-((((2S)-1-methyl-2-pyrrolidinyl)methyl)oxy)-4-(trifluoromethyl)phenyl)-3-pyridinecarboxamide] | < 50 nM |
| CC1(C)CN(S(C)(=O)=O)c2cc(NC(=O)c3cccnc3Nc3ccc4cn[nH]c4c3)ccc21 [Example 625, N-(3,3-dimethyl-1-(methylsulfonyl)-2,3-dihydro-1H-indol-6-yl)-2-(1H-indazol-6-ylamino)-3-pyridinecarboxamide] | < 50 nM |
| CC1(C)CCNc2cc(NC(=O)c3cccnc3Nc3ccc4c(c3)C(=O)NC4)ccc21 [Example 629, N-(4,4-Dimethyl-1,2,3,4-tetrahydro-isoguinolin-7-yl)-2-(1-oxo-2,3-dihydro-1H-isoindol-4-ylamino)-nicotinamide] | < 50 nM |
| CC1(C)CN(C(=O)[C@@H]2CCCN2)c2cc(NC(=O)c3cccnc3Nc3ccc4cn[nH]c4c3)ccc21 [Example 631, N-[3,3-Dimethyl-1-(pyrrolidine-2-carbonyl)-2,3-dihydro-1H-indol-6-yl]-2-(1H-indazol-6-ylamino)-nicotinamide] | < 50 nM |
